Assay results from the NIST ThermoML archive (doi:10.1021/je900437b).

Experiment: xn = mol fraction of the nth substance listed
Details: 101 kPa, Liquid; for speed of sound: Sing-around technique in a fixed-path interferometer; for mass density: Vibrating tube method

CN(CCO)CCO [N-methyldiethanolamine] + NCCO
Details | mass density [kg/m3] | speed of sound [m/s]
293.15 K, x2 = 0 | 1042.2 | 1585.5
293.15 K, x2 = 0.1789 | 1040.32 | 1603.7
293.15 K, x2 = 0.3286 | 1038.49 | 1622.3
293.15 K, x2 = 0.456 | 1036.46 | 1640
293.15 K, x2 = 0.5691 | 1034.2 | 1656.3
293.15 K, x2 = 0.6614 | 1031.81 | 1671.6
293.15 K, x2 = 0.7451 | 1029.17 | 1686
293.15 K, x2 = 0.8197 | 1026.39 | 1698.7
293.15 K, x2 = 0.854 | 1025 | 1705.5
293.15 K, x2 = 0.8865 | 1023.48 | 1712
293.15 K, x2 = 0.9461 | 1020.22 | 1723.3
293.15 K, x2 = 0.9738 | 1018.27 | 1729.4
298.15 K, x2 = 0 | 1038.29 | 1570.1
298.15 K, x2 = 0.1789 | 1036.35 | 1588.5
298.15 K, x2 = 0.3286 | 1034.46 | 1607.1
298.15 K, x2 = 0.456 | 1032.46 | 1624.7
298.15 K, x2 = 0.5691 | 1030.16 | 1641
298.15 K, x2 = 0.6614 | 1027.72 | 1656.2
298.15 K, x2 = 0.7451 | 1025.1 | 1670.5
298.15 K, x2 = 0.8197 | 1022.32 | 1683.1
298.15 K, x2 = 0.854 | 1020.84 | 1689.8
298.15 K, x2 = 0.8865 | 1019.33 | 1696.3
298.15 K, x2 = 0.9461 | 1016.09 | 1707.3
298.15 K, x2 = 0.9738 | 1014.2 | 1713.3
303.15 K, x2 = 0 | 1034.36 | 1554.8
303.15 K, x2 = 0.1789 | 1032.34 | 1573.4
303.15 K, x2 = 0.3286 | 1030.41 | 1591.9
303.15 K, x2 = 0.456 | 1028.38 | 1609.4
303.15 K, x2 = 0.5691 | 1026.07 | 1625.7
303.15 K, x2 = 0.6614 | 1023.61 | 1640.8
303.15 K, x2 = 0.7451 | 1020.96 | 1655
303.15 K, x2 = 0.8197 | 1018.17 | 1667.5
303.15 K, x2 = 0.854 | 1016.66 | 1674.1
303.15 K, x2 = 0.8865 | 1015.15 | 1680.6
303.15 K, x2 = 0.9461 | 1011.9 | 1691.5
303.15 K, x2 = 0.9738 | 1009.95 | 1697.5
308.15 K, x2 = 0 | 1030.43 | 1539.5
308.15 K, x2 = 0.1789 | 1028.36 | 1558.2
308.15 K, x2 = 0.3286 | 1026.41 | 1576.6
308.15 K, x2 = 0.456 | 1024.37 | 1594
308.15 K, x2 = 0.5691 | 1022.01 | 1610.2
308.15 K, x2 = 0.6614 | 1019.55 | 1625.2
308.15 K, x2 = 0.7451 | 1016.86 | 1639.4
308.15 K, x2 = 0.8197 | 1014.03 | 1651.8
308.15 K, x2 = 0.854 | 1012.55 | 1658.3
308.15 K, x2 = 0.8865 | 1011.03 | 1664.7
308.15 K, x2 = 0.9461 | 1007.83 | 1675.5
308.15 K, x2 = 0.9738 | 1005.91 | 1681.3
313.15 K, x2 = 0 | 1026.48 | 1524.2
313.15 K, x2 = 0.1789 | 1024.36 | 1543
313.15 K, x2 = 0.3286 | 1022.38 | 1561.3
313.15 K, x2 = 0.456 | 1020.33 | 1578.7
313.15 K, x2 = 0.5691 | 1017.96 | 1594.7
313.15 K, x2 = 0.6614 | 1015.47 | 1609.7
313.15 K, x2 = 0.7451 | 1012.76 | 1623.8
313.15 K, x2 = 0.8197 | 1009.92 | 1636
313.15 K, x2 = 0.854 | 1008.44 | 1642.5
313.15 K, x2 = 0.8865 | 1006.91 | 1648.8
313.15 K, x2 = 0.9461 | 1003.74 | 1659.5
313.15 K, x2 = 0.9738 | 1001.87 | 1665.2
318.15 K, x2 = 0 | 1022.53 | 1508.8
318.15 K, x2 = 0.1789 | 1020.38 | 1527.7
318.15 K, x2 = 0.3286 | 1018.35 | 1546
318.15 K, x2 = 0.456 | 1016.27 | 1563.2
318.15 K, x2 = 0.5691 | 1013.89 | 1579.2
318.15 K, x2 = 0.6614 | 1011.39 | 1594.1
318.15 K, x2 = 0.7451 | 1008.66 | 1608
318.15 K, x2 = 0.8197 | 1005.81 | 1620.2
318.15 K, x2 = 0.854 | 1004.31 | 1626.6
318.15 K, x2 = 0.8865 | 1002.79 | 1632.8
318.15 K, x2 = 0.9461 | 999.607 | 1643.3
318.15 K, x2 = 0.9738 | 997.788 | 1649
323.15 K, x2 = 0 | 1018.58 | 1493.4
323.15 K, x2 = 0.1789 | 1016.38 | 1512.4
323.15 K, x2 = 0.3286 | 1014.32 | 1530.6
323.15 K, x2 = 0.456 | 1012.2 | 1547.7
323.15 K, x2 = 0.5691 | 1009.81 | 1563.6
323.15 K, x2 = 0.6614 | 1007.31 | 1578.4
323.15 K, x2 = 0.7451 | 1004.57 | 1592.2
323.15 K, x2 = 0.8197 | 1001.7 | 1604.3
323.15 K, x2 = 0.854 | 1000.21 | 1610.7
323.15 K, x2 = 0.8865 | 998.693 | 1616.8
323.15 K, x2 = 0.9461 | 995.464 | 1627.2
323.15 K, x2 = 0.9738 | 993.693 | 1632.8

CC(C)(N)CO [2-amino-2-methylpropan-1-ol] + NCCO
Details | mass density [kg/m3] | speed of sound [m/s]
293.15 K, x2 = 0 | 936.751 | 1501.4
293.15 K, x2 = 0.141 | 944.932 | 1525.9
293.15 K, x2 = 0.2691 | 953.001 | 1550.2
293.15 K, x2 = 0.3862 | 961.121 | 1574
293.15 K, x2 = 0.4939 | 969.165 | 1597.6
293.15 K, x2 = 0.5933 | 977.051 | 1621.2
293.15 K, x2 = 0.6869 | 984.969 | 1645.1
293.15 K, x2 = 0.7724 | 992.742 | 1668.2
293.15 K, x2 = 0.8532 | 1000.62 | 1691
293.15 K, x2 = 0.9268 | 1008.22 | 1712.6
298.15 K, x2 = 0 | 932.596 | 1483.4
298.15 K, x2 = 0.141 | 940.731 | 1508.3
298.15 K, x2 = 0.2691 | 948.799 | 1533
298.15 K, x2 = 0.3862 | 956.918 | 1557.1
298.15 K, x2 = 0.4939 | 964.959 | 1580.9
298.15 K, x2 = 0.5933 | 972.875 | 1604.7
298.15 K, x2 = 0.6869 | 980.811 | 1628.8
298.15 K, x2 = 0.7724 | 988.58 | 1652
298.15 K, x2 = 0.8532 | 996.465 | 1674.8
298.15 K, x2 = 0.9268 | 1004.08 | 1696.5
303.15 K, x2 = 0 | 928.395 | 1461.2
303.15 K, x2 = 0.141 | 936.493 | 1486.9
303.15 K, x2 = 0.2691 | 944.603 | 1512.3
303.15 K, x2 = 0.3862 | 952.718 | 1537.1
303.15 K, x2 = 0.4939 | 960.768 | 1561.6
303.15 K, x2 = 0.5933 | 968.682 | 1585.9
303.15 K, x2 = 0.6869 | 976.624 | 1610.5
303.15 K, x2 = 0.7724 | 984.413 | 1634.3
303.15 K, x2 = 0.8532 | 992.305 | 1657.7
303.15 K, x2 = 0.9268 | 999.98 | 1679.9
308.15 K, x2 = 0 | 924.174 | 1442.4
308.15 K, x2 = 0.141 | 932.236 | 1468.5
308.15 K, x2 = 0.2691 | 940.355 | 1494.4
308.15 K, x2 = 0.3862 | 948.482 | 1519.5
308.15 K, x2 = 0.4939 | 956.545 | 1544.3
308.15 K, x2 = 0.5933 | 964.465 | 1569
308.15 K, x2 = 0.6869 | 972.442 | 1593.8
308.15 K, x2 = 0.7724 | 980.259 | 1617.7
308.15 K, x2 = 0.8532 | 988.206 | 1641.2
308.15 K, x2 = 0.9268 | 995.885 | 1663.6
313.15 K, x2 = 0 | 919.945 | 1423.8
313.15 K, x2 = 0.141 | 927.969 | 1450.4
313.15 K, x2 = 0.2691 | 936.091 | 1476.5
313.15 K, x2 = 0.3862 | 944.248 | 1501.9
313.15 K, x2 = 0.4939 | 952.319 | 1527
313.15 K, x2 = 0.5933 | 960.252 | 1551.9
313.15 K, x2 = 0.6869 | 968.25 | 1576.9
313.15 K, x2 = 0.7724 | 976.093 | 1601
313.15 K, x2 = 0.8532 | 984.066 | 1624.7
313.15 K, x2 = 0.9268 | 991.791 | 1647.3
318.15 K, x2 = 0 | 915.702 | 1405.3
318.15 K, x2 = 0.141 | 923.687 | 1432.2
318.15 K, x2 = 0.2691 | 931.816 | 1458.6
318.15 K, x2 = 0.3862 | 940.009 | 1484.3
318.15 K, x2 = 0.4939 | 948.077 | 1509.7
318.15 K, x2 = 0.5933 | 956.017 | 1534.8
318.15 K, x2 = 0.6869 | 964.037 | 1559.9
318.15 K, x2 = 0.7724 | 971.917 | 1584.1
318.15 K, x2 = 0.8532 | 979.896 | 1608
318.15 K, x2 = 0.9268 | 987.66 | 1630.8
323.15 K, x2 = 0 | 911.431 | 1386.9
323.15 K, x2 = 0.141 | 919.381 | 1414.2
323.15 K, x2 = 0.2691 | 927.518 | 1440.8
323.15 K, x2 = 0.3862 | 935.735 | 1466.7
323.15 K, x2 = 0.4939 | 943.814 | 1492.3
323.15 K, x2 = 0.5933 | 951.753 | 1517.7
323.15 K, x2 = 0.6869 | 959.804 | 1542.9
323.15 K, x2 = 0.7724 | 967.721 | 1567.2
323.15 K, x2 = 0.8532 | 975.738 | 1591.3
323.15 K, x2 = 0.9268 | 983.527 | 1614.4
